Values joined by “and” are separate entries in the source; they are usually repeats but may differ in a detail not shown here. Identical values can stand only once. Like-named read-outs stand apart in the source and are kept apart here.
What was measured:
[1] = biological target: T1, purified HHAT (Homo sapiens, UniProt Q5VTY9); test: Acyl-cLIP assay, inhibition of purified HHAT; format: biochemical; conditions: for LLEAcyl-cLIP: from Acyl-cLIP IC50 and clogDpH7.4; for IC50: purified HHAT, read-out: Acyl-cLIP Assay IC50 (CI95); for fold more potent than analogues 19, 32, and 34: meta-methyl on 4-position aromatic ring
T1 construct: made in house
Outline: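 Fluorescence polarization of FAM-labelled SHH N-terminal peptide palmitoylated by DDM-solubilized purified recombinant HHAT with palmitoyl-CoA, pH 6.5 MES buffer, read over 30 min. Initial rates normalized to DMSO and no-enzyme controls; IC50 from variable-slope sigmoidal fit of 1:1 serial dilutions; single-point % inhibition at 50 and 25 μM.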

[2] = MTS assay, cytotoxicity (72 h); format: cell-based; conditions: human, HEK293a SHH+ cells, 72 h; for CC50 at 72 h: read-out: MTS Assay (HEK293a SHH+) CC50 (CI95)
Outline: (§1)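 Cells plated at 5000/well, cultured 24 h, then exposed to analogues (0.14–100 μM final) in DMEM/10% FBS for 72 h. MTS/PMS added for 3 h at 37 °C and absorbance read at 490 nm; data normalised to DMSO vehicle and puromycin (2 μg/mL) wells, curves fitted with a variable-slope sigmoidal model.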

[3] = test system: HEK293a SHH+ cells; test: MTS assay, cytotoxicity (72 h); format: cell-based; conditions: for decrease in cell viability / cell survival: 12.5 μM
Outline: as §1

[4] = Caco-2 permeability assay; format: in vitro ADME, human; conditions: human; for Papp A→B at 2 h, 10 μM / Papp B→A at 2 h, 10 μM / recovery at 2 h, 10 µM: Caco-2, pH 7.4, 10 µM; for efflux ratio at 2 h, 10 µM: Caco-2, pH 7.4, read-out: Caco-2 Eflux Ratio (B>A/A>B)
Procedure: Apparent permeability (Papp) was determined in the Caco-2 human colon carcinoma cell line. Cells were maintained in DMEM containing 10% fetal bovine serum, penicillin and streptomycin in a humidified atmosphere with 5% CO2 for 10 days. Cells were plated onto a cell culture assembly plate (Millipore, UK) and monolayer confluency was checked using a TEER electrode prior to the assay. Medium was washed off and replaced in the appropriate apical and basal wells with HBSS buffer (pH 7.4) containing compounds (10 μM, 1% DMSO). The Caco-2 plate was incubated for 2 h at 37 °C, and Lucifer yellow was used to confirm membrane integrity postassay. […] Papp was determined as follows: [drawing 1] where Vr = volume of receptical; A = surface area of monolayer; C0 = Initial compound concentration in donor.

[5] = Microsomal incubations, human liver microsomes; format: in vitro ADME; conditions: 1 μM
Procedure: Metabolic stability assays were performed using a Microlab Star liquid handling workstation (Hamilton Robotics, Bonaduz, Switzerland). Test compounds (1 μM, 1% DMSO) were preincubated at 37 °C for 10 min in 0.5 mg/mL female CD1 mouse and mixed gender human liver microsomes in 10 mM phosphate buffered saline (PBS; Sigma-Aldrich Company Ltd. (Dorset, UK)). Microsomes were purchased either from Sekisui XenoTech, LLC (Kansas City, USA) or BioreclamationIVT (Frankfurt Am Main, Germany). Reactions were initiated by the addition of NADPH (final concentration 1 mM). At 0, 15, and 30 min, aliquots were removed from each incubation and quenched in 3 volumes of ice-cold methanol containing olomoucine (Sigma-Aldrich, Dorset, UK) as an internal standard. […] The percentage metabolized was calculated by comparing peak area ratio (peak area test compound/peak area of internal standard) at t = 15 and 30 min versus t = 0 min.

[6] = + Verapamil (P-glycoprotein inhibitor)
[7] = + Verapamil (P-glycoprotein inhibitor), read-out: Caco-2 A>B Recovery
[8] = + Verapamil (P-glycoprotein inhibitor), read-out: Caco-2 B>A Recovery
[9] = without Verapamil, read-out: Caco-2 A>B Recovery
[10] = without Verapamil, read-out: Caco-2 B>A Recovery

T1 sequence (Q5VTY9 whole entry): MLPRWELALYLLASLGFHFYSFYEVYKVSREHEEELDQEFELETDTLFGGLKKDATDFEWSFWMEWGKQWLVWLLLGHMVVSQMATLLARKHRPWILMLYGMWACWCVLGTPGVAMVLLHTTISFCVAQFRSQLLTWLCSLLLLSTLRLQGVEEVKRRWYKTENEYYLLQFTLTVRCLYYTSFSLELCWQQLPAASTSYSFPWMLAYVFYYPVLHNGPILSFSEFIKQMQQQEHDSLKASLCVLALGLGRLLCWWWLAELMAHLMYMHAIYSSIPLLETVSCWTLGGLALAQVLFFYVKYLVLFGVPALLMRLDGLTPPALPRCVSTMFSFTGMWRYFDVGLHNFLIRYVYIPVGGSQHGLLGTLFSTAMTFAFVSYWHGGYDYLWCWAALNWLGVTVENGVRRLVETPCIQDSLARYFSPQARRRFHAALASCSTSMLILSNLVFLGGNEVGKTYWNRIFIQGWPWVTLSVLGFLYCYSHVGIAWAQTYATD

Row | Compound | inhibition at 25 µM [1] [%] | inhibition at 50 µM [1] [%] | LLEAcyl-cLIP [1] | IC50 [1] | CC50 at 72 h [2] [µM] | viability at 72 h, 12.5 µM [2] [%] | viability at 72 h, 25 µM [2] [%] | Papp A→B at 2 h, 10 μM [4, 6] [×10⁻⁶ cm/s] | Papp B→A at 2 h, 10 μM [4, 6] [×10⁻⁶ cm/s] | recovery at 2 h, 10 µM [4, 7] [%] | recovery at 2 h, 10 µM [4, 8] [%] | Papp A→B at 2 h, 10 μM ([4]; without Verapamil) [×10⁻⁶ cm/s] | Papp B→A at 2 h, 10 μM ([4]; without Verapamil) [×10⁻⁶ cm/s] | recovery at 2 h, 10 µM [4, 9] [%] | recovery at 2 h, 10 µM [4, 10] [%] | efflux ratio at 2 h, 10 µM [4] | HLM % metabolized after 15 min [5] [%] | HLM % metabolized after 30 min [5] [%] | decrease in cell viability / cell survival [3] [%] | also measured
1 | Cc1cccc(C2c3ccsc3CCN2C(=O)CNCC(C)C)n1 (stereo not shown) [Compound 24] | 91 ± 4 | 95 ± 4 | 4.90 | 1.33 µM | > 50 | 88 ± 3 | 80 ± 3 |  |  |  |  |  |  |  |  |  |  |  |  | 
2 | CCC(C)CNCC(=O)N1CCc2sccc2C1c1cccc(C)c1 (stereo not shown) [Compound 17] | 93 ± 7 | 88 ± 2 | 2.91 | 2.13 µM | 40.7 | 42 ± 3 | 55 ± 1 | 14.2 ± 0.8 | 19.8 ± 2 | 58.6 ± 0.9 | 66.6 ± 1.9 | 17 ± 2.5 | 17.4 ± 4.1 | 60.5 ± 2.4 | 80.4 ± 2.2 | 1.02 | 44.4 | 66.7 |  | fold more potent than analogues 19, 32, and 34 [1]: 2–5 fold; toxicity to HEK293a SHH+ cells [3]: toxic
3 | Cc1cccc([C@H]2c3ccsc3CCN2C(=O)CNCC(C)C)n1 [Compound 30] | 92 ± 4 | 95 ± 4 | 5.14 | < 10 µM | > 50 | 101 ± 6 | 98 ± 5 |  |  |  |  |  |  |  |  |  | 28.8 | 36.9 | < 30 | fold increase in potency compared to racemate ([1]; enantiomer vs racemate (29 vs 21, 30 vs 24, 43 vs 39)): 2 fold; CC50 ([3]; 72 h, read-out: MTS Assay (HEK293a SHH+) CC50 (CI95)): > 100 µM
4 | CC(=O)N1CCc2sccc2C1c1ccccc1 (stereo not shown) [Compound 5] | 66 ± 7 | 85 ± 5 | 2.39 | 5.3 µM and 5.34 µM | 13.9 | 73 ± 2 | 76 ± 4 |  |  |  |  |  |  |  |  |  | 52.5 | 64.3 | < 30 | 
5 | Cc1cccc([C@@H]2c3ccsc3CCN2C(=O)CNCC(C)C)n1 [Compound 28] | 13 ± 4 | 18 ± 2 |  | > 100 µM | > 100 | 108 ± 7 | 105 ± 4 |  |  |  |  |  |  |  |  |  |  |  |  | HHAT inhibition in the acyl-cLIP assay [1]: no inhibitory activity
6 | C=CCNCC(=O)N1CCc2sccc2C1COc1ccc(Cl)cc1 (stereo not shown) [Compound 2] | 73 ± 9 | 87 ± 2 | 2.48 | 5.76 µM | 35.9 | 56 ± 3 | 50 ± 2 | 8.3 ± 0.9 | 12.5 ± 1.9 | 41.1 ± 1 | 51.6 ± 1 | 14.5 ± 0.4 | 12.4 ± 2.1 | 56.7 ± 1.9 | 87.8 ± 1.2 | 0.86 | 43.0 | 69.5 | 44 | 
7 | CCC(C)CNCC(=O)N1CCc2sccc2C1c1cccc(C)n1 (stereo not shown) [Compound 22] | 96 ± 1 | 103 ± 1 | 4.20 | 2.58 µM | > 50 | 92 ± 1 | 89 ± 3 | 35.5 ± 2 | 22.7 ± 3.3 | 70 ± 2.5 | 75.7 ± 2 | 39.2 ± 0.7 | 29.7 ± 0.2 | 88.7 ± 0.1 | 108 ± 3.1 | 0.76 | 36.9 | 56.2 |  | fold more potent than analogues 19, 32, and 34 [1]: 2–5 fold
